For data set [1], the system named is 11 human CYP enzymes. Briefly: CYP screening, whole panel. The class given is in vitro ADME. Here is the method: DWP16001, M1, or M2 was incubated with 11 human cDNA-expressed CYP enzymes (1A1, 1A2, 2A6, 2B6, 2C8, 2C9, 2C19, 2D6, 2E1, 3A4, and 3A5) to identify the CYP enzymes involved in the metabolism of DWP16001. Reaction mixtures of 95 µL containing DWP16001 (final concentration: 5 µM), M1 or M2 (final concentration: 10 µM), and CYPs (final amount: 10 pmol) were prepared in 0.1 M potassium phosphate buffer (pH 7.4). The reaction was started by adding 5 µL of NADPH-generating system; the mixtures were incubated for 30 min at 37 °C in triplicate. Reactions were stopped by the addition of 400 µL of ice-cold ketoconazole (internal standard, 200 ng/mL) in ice-cold acetonitrile. Samples were centrifuged at 15,000× g for 8 min at 4 °C. Seventy-five microliter aliquots of the supernatants were diluted with 75 µL of deionized water and analyzed using an LC–MS/MS system.

The test system of data set [2] is 13 human UGT enzymes. Briefly: UGT screening, whole panel. The class given is in vitro ADME. The note with it: incubation of M1 with 13 human UGT enzymes and UDPGA. Here is the method:
To screen for UGT enzymes responsible for glucuronidation of DWP16001, 100 μL of reaction mixtures containing 13 human cDNA-expressed UGT enzymes (1A1, 1A3, 1A4, 1A6, 1A7, 1A8, 1A9, 1A10, 2B4, 2B7, 2B10, 2B15, and 2B17) at 0.1 mg protein/mL, 5 mM UDPGA, 0.025 mg/mL alamethicin, and 25 μM DWP16001 or M1 in 50 mM Tris buffer (pH 7.4) were incubated at 37 °C for 30 min in triplicate. Reactions were stopped by adding 100 μL of ketoconazole (internal standard, 200 ng/mL) in acetonitrile, followed by vortex-mixing and centrifugation (15,000× g, 8 min, 4 °C). The supernatant (75 μL) was diluted with equal volume of 30% acetonitrile and aliquots (5 μL) were injected into an LC-MS/MS system.

The conditions of data set [3]: cited from earlier work.
For data set [4] the following is noted: human; cited from earlier work.
For data set [5] the following is noted: human, cited from earlier work.
Data set [6] deals with human hepatocytes. The note with it: cited from earlier work.
Data set [7] deals with SGLT2. Also noted: method as in PMID 32183468. The note with it: read-out: IC50 (SGLT2 inhibition); cited from earlier work.

Where two headings read alike, the source gives them in different places.

For the compound `OC[C@H]1O[C@@H](c2cc(Cc3ccc(C4CC4)cc3)c(Cl)c3c2CC(O)O3)[C@H](O)[C@@H](O)[C@@H]1O` (stereo partly drawn) [M1, (2S,3R,4R,5S,6R)-2-(7-chloro-6-(4-cyclopropylbenzyl)-2-hydroxy-2,3-dihydrobenzofuran-4-yl)-6-(hydroxymethyl)tetrahydro-2H-pyran-3,4,5-triol], in data set [1] (incubation of M1 with 11 human CYP enzymes and NADPH), the “Formation of M4 from M1” value is “not detected”. Moreover, the “Formation of M1 glucuronides U4 and U5 from M1” value in data set [2] is on record as “not formed”.

Turning to `OC[C@H]1O[C@@H](c2cc(Cc3ccc(C4(O)CC4)cc3)c(Cl)c3c2CCO3)[C@H](O)[C@@H](O)[C@@H]1O` [M2, (2S,3R,4R,5S,6R)-2-(7-chloro-6-(4-(1-hydroxycyclopropyl)benzyl)-2,3-dihydrobenzofuran-4-yl)-6-(hydroxymethyl)tetrahydro-2H-pyran-3,4,5-triol], the “Formation of M5 from M2” value in data set [1] (incubation of M2 with 11 human CYP enzymes and NADPH) is reported as “not detected”.

Turning to `Cc1ccc([C@@H]2O[C@H](CO)[C@@H](O)[C@H](O)[C@H]2O)cc1Cc1ccc(-c2ccc(F)cc2)s1` [canagliflozin], the “Drug interaction on co-administration” value in data set [3] (glyburide, metformin, and simvastatin) is “did not cause significant drug interactions”. Further, the “Increase of AUC” value in data set [3] (human, cyclosporine A 400 mg) was 23%; in data set [3] (human, probenecid 500 mg twice per day for 3 days), 20.7%. In addition, the “Decrease of AUC” value in data set [3] (human, repeated rifampin 600 mg/day for 8 days) is 48.7%.

As for `CCOc1ccc(Cc2cc([C@@H]3O[C@H](CO)[C@@H](O)[C@H](O)[C@H]3O)ccc2Cl)cc1` [dapagliflozin], the “Share of oxidative metabolism (CYP2D6, CYP3A4, CYP2C9 etc.) in metabolism” value in data set [4] is “less than 10%”. Moreover, the “Increase of AUC” value in data set [5] (pretreatment with mefenamic acid 250 mg every 6 h for 5 days) is reported as 50%. For the same compound, the “Decrease of AUC” value in data set [5] (repeated rifampin 600 mg/day for 6 days) was 22%. Besides, in data set [6], the Hepatic extraction entry was “low”.

Turning to `OC[C@H]1O[C@@H](c2ccc(F)c(Cc3cc4ccccc4s3)c2)[C@H](O)[C@@H](O)[C@@H]1O` [ipragliflozin], the IC50 in data set [7] was 8.9 ± 1.7 nM.

Source of the values: publication PMC7558535, “In Vitro Metabolism of DWP16001, a Novel Sodium-Glucose Cotransporter 2 Inhibitor, in Human and Animal Hepatocytes” (Pharmaceutics, 2020).
